The record followed here is patent US20170355743A1, “INSULIN RECEPTOR PARTIAL AGONISTS” (Merck Sharp & Dohme Corp., priority 2014, published 2017).

The subject of the test is C57BL/6NTac mice. The test can be described thus: Intraperitoneal Insulin Tolerance Test (IP-ITT). In kind it is in vivo. The following applies: intraperitoneal injection, two doses per compound (Table 16), lean male C57BL/6NTac mice, 30 to 360 minutes after dose. Here is the method:
Groups of N=6-8 animals per group were randomized by weight (average about 30 grams). Two days prior to study, the mice were conditioned to dosing with an intraperitoneal injection of 0.9% Sodium Chloride solution at 5 ml/kg dosing volume. On the morning of the study, food was removed two or four hours prior to the study. Blood glucose concentrations were determined at T=0 min (baseline) using a Glucometer. […] Blood glucose levels were determined from tail bleeds taken between 30 to 360 minutes after dose.

As for “B29,B29′-suberoyl-(insulin)2 [Compound B, reference compound]”, the “blood glucose profile at low versus high dose” value is “increased glucose lowering potency”.
